# Experimental data from patent publication US20040059104A1, “Nucleotide mimics and their prodrugs” (priority 2002, published 2004).
# Read-outs that look alike come from different tables or passages of the source.
# Assays:
# [1] = in vitro; details: bovine, serum
# Experimental: Typically the total volume used for the experiment was 500 μl. The final concentrations of the reaction components were as follows:
# The reacton mixtures were made up and incubated at 37° C. At appropriate times aliquots of 25 μl were removed and added to 65 μl ice-cold methanol. These solutions were our at −20° C. and typically overnight. After incubation samples were inutes at high speed in a microcentrifuge. The supernatant was nd the extract was dried under vacuum in a LabConco Centrivap Concentrator. The dried extracts were resuspended in dH2O and filtered to remove particulate before analysis on reverse phase HPLC.
# The reverse phase HPLC columns used for the analysis were either a Phenomenex C18 Aqua column (2×100 mm) or the Phenomenex C18 Aqua column (3×150 mm) used with the appropriate guard column. The HPLC was run at 0.2 ml/min (for the 2×100 mm column) or at 0.5 ml/min (for the 3×150 mm column) with the following buffer system: 5 mM tetrabutylammonium acetate, 50 mM ammonium phosphate, and an acetonitrile gradient running from 5% up to as high as 60%. The amount of remaining parent compound at each time point was used to determine the half-life of the compound. […] Unmodified nucleoside triphosphates were used as positive controls.
# [2] = system: Escherichia coli; assay: Antimicrobial assay, minimal inhibitory concentration; type: cell-based; details: Escherichia coli, read-out: E. coli MIC
# Experimental: To examine the antimicrobial potential of the nucleotide mimics of the present invention an assay was employed that allowed the screening of a large number of compounds simultaneously. The type of bacteria chosen to screen the compounds are organisms associated with human disease and represent major groups of bacteria based on their structure and metabolism. Bacterial cultures of Escherichia coli and Staphylococcus aureus were incubated overnight at 37° C. in a shaker incubator. A lawn of each overnight bacterial culture was made by plating […] of bacteria on agar plates containing Nutrient Broth. Immediately after plating, sterile blank paper discs were put on top of the lawn and a compound was applied to each blank paper disc. Plates were then incubated overnight and examined for the inhibition of bacterial growth the following day. […] The plates were incubated overnight at 37° C. and then examined spectrophotometrically at 600 nm to determine the minimum concentration of each compound that inhibited replication of bacteria as determined by no increase in absorbance at 600 nm.
# [3] = overnight at 37° C., tested 0-200 μg/ml, NA = Not active
# [4] = value in brackets beside the μg/ml value
Structure (SMILES),"Half-Life, Serum Half-Lives of NTPs and AZT Triphosphate Mimics [1] [h]","MIC [2, 3] [µg/mL]","MIC [2, 4] [µM]",also measured
"BP(=O)(OCC1OC(n2cc(C)c(=O)[nH]c2=O)CC1N=[N+]=[N-])OP(=O)(O)C(F)(F)P(=O)(O)O (single isomer, unassigned; isomer 3) [Compound 27-Isomer, 3′-Azido-3′-deoxythymidine 5′-α-P-borano-β,γ-(difluoromethylene)triphosphate]",–,–,–,"Half-Life, Serum Half-Lives of AZT Triphosphate Mimic Prodrugs [1]: >48 h"
"BP(=O)(OC[C@@H]1O[C@H](n2cc(C)c(=O)[nH]c2=O)C[C@H]1N=[N+]=[N-])OP(=O)(O)OP(=O)(O)O (stereo partly drawn) [AZT 5′-α-P-boranotriphosphate, reference compound]",6,–,–,–
"Cc1cn([C@H]2C[C@H](N=[N+]=[N-])[C@@H](COP(=O)(O)OP(=O)(O)OP(=O)(O)O)O2)c(=O)[nH]c1=O [AZT Triphosphate, 3′-azido-3′-deoxythymidine (AZT, an anti-HIV drug) triphosphate, reference compound]",2,–,–,–
"Cc1cn([C@H]2C[C@H](N=[N+]=[N-])[C@@H](CO)O2)c(=O)[nH]c1=O [AZT, 3′-azido-3′-deoxythymidine, reference compound]",–,2,7.5,–
"Cc1cn([C@H]2C[C@@H](N=[N+]=[N-])[C@@H](COP(=O)(O)NP(=O)(OCCSC(=O)C(C)(C)C)OCCSC(=O)C(C)(C)C)O2)c(=O)[nH]c1=O [Compound 71, 3′-Azido-3′-deoxythymidine 5′-β,β-O-di(S-pivaloyl-2-thioethyl)imidodiphosphate]",–,20,28,–
"Cc1cn([C@H]2C[C@H](O)[C@@H](COP(=O)(O)OP(=O)(O)OP(=O)(O)O)O2)c(=O)[nH]c1=O [Thymidine Triphosphate, reference compound]",–,–,–,"Half-Life, Serum Half-Lives of NTPs and AZT Triphosphate Mimics ([1]; 500 μM): 2 h"
